Measured values from EP4467141A1, “PYRAZOLO-QUINOLINES AS SELECTIVE INHIBITORS OF GENOTOXIC STRESS-INDUCED IKK/NF- KB PATHWAYS FOR CANCER THERAPY” (Max-Delbrück-Centrum für Molekulare Medizin in der …, priority 2023, dated 2024).

Legend:
Assay in all cases: Kinase panel study
Assay type in all cases: biochemical
Settings in all cases: read-out: Percentage of inhibition; for inhibition at 1 µM: 1000nM; for inhibition at 10 µM: 10000nM
[1] = target: T1, SGK2 (Homo sapiens, UniProt Q9HBY8)
T1 construct: purchased Thermo Fisher Scientific
T1 sequence (Q9HBY8 1-367): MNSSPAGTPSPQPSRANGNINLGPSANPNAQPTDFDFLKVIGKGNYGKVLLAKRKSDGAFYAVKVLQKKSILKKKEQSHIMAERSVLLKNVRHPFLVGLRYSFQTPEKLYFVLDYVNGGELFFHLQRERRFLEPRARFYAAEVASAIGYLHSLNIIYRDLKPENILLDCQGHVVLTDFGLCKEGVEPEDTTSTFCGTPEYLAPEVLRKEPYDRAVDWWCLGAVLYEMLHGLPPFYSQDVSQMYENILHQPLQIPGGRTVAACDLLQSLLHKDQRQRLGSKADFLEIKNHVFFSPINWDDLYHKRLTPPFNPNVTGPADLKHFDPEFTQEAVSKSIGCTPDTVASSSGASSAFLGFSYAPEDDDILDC
How it was run: (§1)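 Outsourced panel screen. Format: ZLyte or Adapta, run per the manufacturer's procedures. Read-out: inhibition (%) at a single dose of 10 µM or 1 µM; IC50s also generated.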

[2] = target: T2, CAMK1 (CaMK1) (Homo sapiens, UniProt Q14012)
T2 construct: purchased Thermo Fisher Scientific
How it was run: as §1

[3] = target: T3, FLT3 D835Y (Homo sapiens, UniProt P36888, D835Y)
T3 construct: purchased Thermo Fisher Scientific
T3 sequence (P36888 27-993 D835Y): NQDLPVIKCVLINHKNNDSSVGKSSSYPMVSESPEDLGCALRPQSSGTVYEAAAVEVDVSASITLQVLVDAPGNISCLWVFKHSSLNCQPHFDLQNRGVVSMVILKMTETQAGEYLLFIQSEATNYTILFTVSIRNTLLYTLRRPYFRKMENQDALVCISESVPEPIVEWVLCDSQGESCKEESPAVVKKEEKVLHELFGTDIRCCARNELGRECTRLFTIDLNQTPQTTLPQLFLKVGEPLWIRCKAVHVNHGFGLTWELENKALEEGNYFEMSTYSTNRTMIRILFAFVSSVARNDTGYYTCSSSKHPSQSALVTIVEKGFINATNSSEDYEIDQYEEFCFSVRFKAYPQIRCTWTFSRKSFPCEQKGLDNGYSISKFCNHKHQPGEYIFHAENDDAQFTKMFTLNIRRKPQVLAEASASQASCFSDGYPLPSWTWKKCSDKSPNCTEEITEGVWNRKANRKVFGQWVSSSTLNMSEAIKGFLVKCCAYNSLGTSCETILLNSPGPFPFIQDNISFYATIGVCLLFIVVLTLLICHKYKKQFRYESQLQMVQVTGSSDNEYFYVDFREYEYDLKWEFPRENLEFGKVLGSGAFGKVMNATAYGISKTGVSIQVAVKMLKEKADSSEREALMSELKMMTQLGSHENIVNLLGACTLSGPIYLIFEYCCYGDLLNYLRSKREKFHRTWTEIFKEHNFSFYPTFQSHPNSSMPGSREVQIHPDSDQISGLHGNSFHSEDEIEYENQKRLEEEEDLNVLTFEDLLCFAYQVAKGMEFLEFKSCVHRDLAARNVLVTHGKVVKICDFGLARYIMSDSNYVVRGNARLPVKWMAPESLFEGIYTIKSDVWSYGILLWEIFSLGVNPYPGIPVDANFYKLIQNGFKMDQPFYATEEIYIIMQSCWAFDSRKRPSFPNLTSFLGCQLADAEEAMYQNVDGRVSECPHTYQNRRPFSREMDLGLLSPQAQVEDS
How it was run: as §1

SMILES	inhibition at 1 µM [1]	inhibition at 10 µM [1]	inhibition at 1 µM [2]	inhibition at 10 µM [2]	inhibition at 1 µM [3]	inhibition at 10 µM [3]
COc1ccc2c(c1OC)c(=O)n1c3ccc(O)cc3c3ccnc2c31 [MW01, 5-Hydroxy-10,11-dimethoxy-9H-benzo[c]indolo[3,2,1-ij][1,5]naphthyridin-9-one]	6%	14%	-12%	-2%	81%	92%
COc1ccc2cc3c(N)nn(C(=O)c4cccc(N(C)C)c4)c3nc2c1 [MW05, (3-Amino-7-methoxypyrazolo[3,4-b]quinolin-1-yl)-[3-(dimethylamino)phenyl]methanone]	-3%	-11%	-11%	-5%	10%	15%
